Measurements published in patent publication US8933070B2, “Methods of targeting PTEN mutant diseases and compositions therefor” (University Health Network, priority 2010, dated 2015).

Assays:
PLK2 = biological target: T1, PLK2 (Homo sapiens, UniProt Q9NYY3); experiment: PLK2 inhibition assay (Z-Lyte); assay type: biochemical; conditions: dose of 10 μM; read-out: PLK2 relative inhibition percentage
T1 construct: purchased Invitrogen PV4204
Protocol: PLK2 inhibition was determined using the Z-Lyte assay kit from Invitrogen (cat# PV3802). The assay was performed using the recommended manufacturer's instructions with 60 μM ATP and 133 nM PLK2 (Invitrogen cat #PV4204). The % inhibition values were determined according to the manufacturer's directions and IC50 values were obtained using a non-linear 4 point logistic curve fit (XLfit4, IDBS)

[1] = test system: HCT116 p53^−/− colon cancer cell line; experiment: Cell growth inhibition, SRB assay, extended panel; assay type: cell-based; conditions: Homo sapiens, HCT-116, read-out: GI50 Range HCT116 p53^−/−
Protocol: (§1) Breast cancer cells (MCF-7, MDA-MB-468 and HCC1954), colon cancer cells (SW620) and lung cancer cells (A549), together with human mammary epithelial primary cells (HMEC) were seeded (1000 to 4000 per 80 μl per well depending on the cell growth rate) into 96-well plates 24 hours before compound overlay. Compounds were prepared as 10 mM stock solutions in 100% DMSO which were diluted with DMEM (Dulbecco's Modified Eagle's Medium) cell growth Medium (Invitrogen, Canada) containing 10% FBS (Fetal Bovine Serum) to concentrations ranging from 50 nM to 250 μM. Aliquots (20 μl) from each concentration were overlaid to 80 μl of the pre-seeded cells in the 96-plates to make final concentrations of 10 nM to 50 μM. The cells were cultured for 5 days before the Sulforhodamine B (SRB) assay was performed to determine the compound's cell growth inhibition activity.
(§2) Sulforhodamine B (Sigma, Canada) is a water-soluble dye that binds to the basic amino acids of cellular proteins. Thus, colorimetric measurement of the bound dye provides an estimate of the total protein mass that is related to the cell number. The cells are fixed in situ by gently aspirating off the culture media and adding 50 μl ice cold 10% Trichloroacetic Acid (TCA) per well and incubated at 4° C. for 30-60 min. The plates are washed with water five times and allowed to air dry for 5 min. Addition of 50 μl 0.4% (w/v) SRB solution in 1% (v/v) acetic acid to each well and incubatation for […] at RT completes the staining reaction. Following staining, plates are washed four times with 1% acetic acid to remove unbound dye and then allowed to air dry for 5 min. The stain is solubilized with 100 μl of 10 mM Tris pH 10.5 per well. Absorbance is read at 570 nm.
(§3) The percentage (%) of relative growth inhibition was calculated by comparing to DMSO-treated only cells (100%). GI50's were determined for compounds with cytotoxic activity. The GI50 was calculated using GraphPad PRISM software (GraphPad Software, Inc., USA).
(§4) In addition to the cell lines tested as described above, selected compounds have been assayed against an extended panel. These include: breast cancer cell lines (T-47D, MDA-MB-231, Hs578T, 8T-474, SKBr-3 and HCC1954), a lung cancer cell line (H358), brain cancer cell lines (A172, Hs683 and SK-N-SH), colon cancer cell lines (Colo 205, HCT-15, HCT116 p53^+/+ and HCT116 p53^−/−), ovarian cancer cell lines (OVCAR-3, SK-OV-3 and SW626), a melanoma cell line (518A2), a prostate cancer cell line (PC-3) and an immortalized breast cell line (184A1). The SRB assay described above was used to assay test compounds against the extended panel (Table 6).

[2] = test system: HCT116 p53^+/+ colon cancer cell line; experiment: Cell growth inhibition, SRB assay, extended panel; assay type: cell-based; conditions: Homo sapiens, HCT-116, read-out: GI50 Range HCT116 p53^+/+
Protocol: as §1, §2, §3, §4

PLK1 = biological target: T2, PLK1 (Homo sapiens, UniProt P53350); experiment: PLK1 inhibition assay (Z-Lyte); assay type: biochemical; conditions: dose of 10 μM; read-out: PLK1 relative inhibition percentage
T2 construct: purchased Invitrogen PV3501
T2 sequence (P53350 whole entry): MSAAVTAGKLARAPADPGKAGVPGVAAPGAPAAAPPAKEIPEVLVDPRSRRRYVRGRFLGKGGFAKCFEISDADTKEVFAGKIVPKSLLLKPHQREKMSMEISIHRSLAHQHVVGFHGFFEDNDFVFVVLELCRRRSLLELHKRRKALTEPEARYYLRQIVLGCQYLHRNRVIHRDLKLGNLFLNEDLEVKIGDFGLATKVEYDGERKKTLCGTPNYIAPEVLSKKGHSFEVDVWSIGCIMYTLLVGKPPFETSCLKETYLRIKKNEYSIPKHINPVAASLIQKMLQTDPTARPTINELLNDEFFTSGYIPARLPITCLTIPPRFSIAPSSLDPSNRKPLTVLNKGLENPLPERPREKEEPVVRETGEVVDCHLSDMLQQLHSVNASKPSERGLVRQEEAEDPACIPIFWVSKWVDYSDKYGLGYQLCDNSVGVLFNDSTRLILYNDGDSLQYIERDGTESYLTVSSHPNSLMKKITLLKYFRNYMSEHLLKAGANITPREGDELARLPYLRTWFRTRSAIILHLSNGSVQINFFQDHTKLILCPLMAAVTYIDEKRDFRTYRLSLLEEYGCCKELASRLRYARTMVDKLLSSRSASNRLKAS
Protocol: PLK1 inhibition was determined using the Z-Lyte assay kit from Invitrogen (cat#PV3802). The assay was performed using the recommended manufacturer's instructions with 25 μM ATP and 8 nM PLK1 (Invitrogen cat #PV3501). The % inhibition values were determined according to the manufacturer's directions and IC50 values were obtained using a non-linear 4 point logistic curve fit (XLfit4, IDBS)

T1 sequence (Q9NYY3 whole entry): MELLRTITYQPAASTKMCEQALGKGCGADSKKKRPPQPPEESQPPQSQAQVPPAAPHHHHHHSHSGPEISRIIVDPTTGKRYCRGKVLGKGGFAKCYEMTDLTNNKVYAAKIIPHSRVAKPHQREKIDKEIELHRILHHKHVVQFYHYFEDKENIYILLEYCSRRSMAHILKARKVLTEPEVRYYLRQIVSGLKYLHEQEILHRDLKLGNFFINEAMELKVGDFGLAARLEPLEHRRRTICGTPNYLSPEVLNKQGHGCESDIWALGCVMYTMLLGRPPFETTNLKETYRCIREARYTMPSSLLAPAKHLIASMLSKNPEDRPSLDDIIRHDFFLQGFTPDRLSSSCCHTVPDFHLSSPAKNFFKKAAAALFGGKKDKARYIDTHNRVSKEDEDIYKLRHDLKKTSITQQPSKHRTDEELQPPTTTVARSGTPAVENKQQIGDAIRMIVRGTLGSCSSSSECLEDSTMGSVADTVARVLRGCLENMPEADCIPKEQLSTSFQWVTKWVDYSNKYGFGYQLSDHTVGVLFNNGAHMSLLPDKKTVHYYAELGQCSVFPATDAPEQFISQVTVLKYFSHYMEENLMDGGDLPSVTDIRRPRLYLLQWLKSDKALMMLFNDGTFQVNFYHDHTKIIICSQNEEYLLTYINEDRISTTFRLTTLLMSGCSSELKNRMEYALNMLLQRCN

SMILES: CN1CCN(c2ccc(/C=C/c3n[nH]c4cc(C=C5C(=O)Nc6ccccc65)ccc34)cn2)CC1 [Compound 32]
- inhibition at 10 µM (PLK2): < 50%
- GI50 [1]: < 5 µM
- GI50 [2]: < 5 µM
- inhibition at 10 µM (PLK1): < 50%
